In article PMC3211034, “Optimal Production and Biochemical Properties of a Lipase from Candida albicans” (International Journal of Molecular Sciences, 2011):

How the values were obtained:
[1] = molecular target: T1, CaLIP10 (lipase 10 from Candida albicans; product of lip10-dm) (Candida albicans, UniProt Q9P4E5); assay: clear zone on tributyrin-emulsion YPD plates, secreting P. pastoris transformants; assay type: cell-based; settings: 1% tributyrin emulsion; X-33 and empty-vector control
T1 construct: mature protein without signal peptide, cloned from genomic DNA; CTG-Ser codons 210 and 378 recoded to TCT, so the product keeps native Ser210 and Ser378 (no amino-acid change); secreted from Pichia pastoris X33 with pGAPZalphaA; about 50 kDa by SDS-PAGE
T1 sequence (Q9P4E5 17-465): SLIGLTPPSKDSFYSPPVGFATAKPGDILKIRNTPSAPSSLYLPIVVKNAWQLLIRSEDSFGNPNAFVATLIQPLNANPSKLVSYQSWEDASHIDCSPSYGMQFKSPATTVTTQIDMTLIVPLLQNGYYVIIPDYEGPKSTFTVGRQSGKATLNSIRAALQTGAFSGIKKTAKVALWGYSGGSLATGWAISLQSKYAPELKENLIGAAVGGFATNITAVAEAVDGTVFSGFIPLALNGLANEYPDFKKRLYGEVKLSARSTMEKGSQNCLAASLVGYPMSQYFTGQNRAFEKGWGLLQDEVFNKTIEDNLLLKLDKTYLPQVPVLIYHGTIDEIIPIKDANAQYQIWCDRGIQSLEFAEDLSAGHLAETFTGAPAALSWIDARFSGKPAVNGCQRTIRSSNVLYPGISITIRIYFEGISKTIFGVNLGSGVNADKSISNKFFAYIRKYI

[2] = molecular target: T1, CaLIP10 (lipase 10 from Candida albicans; product of lip10-dm); assay: spectrophotometric release of p-nitrophenol at […] nm; assay type: biochemical; settings: 2 mM substrate, 50 mM Tris-HCl pH 8.0, 25 °C

| Compound | clear zone on tributyrin-emulsion YPD plates, secreting P. pastoris transformant [1] | spectrophotometric release of p-nitrophenol at 405 nm [2] |
| --- | --- | --- |
| CCCC(=O)OCC(COC(=O)CCC)OC(=O)CCC [tributyrin] | a clear zone was formed around wild type lip10 and mutated lip10-dm |  |
| CCCCCCCC(=O)Oc1ccc([N+](=O)[O-])cc1 [p-nitrophenol caprylate] |  | The lipase activity was determined spectrophotometrically using p-nitrophenol caprylate as substrate. |
